EP4813989A1, “CRYSTAL, PHARMACEUTICAL COMPOSITION, PREPARATION METHOD THEREFOR, AND USE THEREOF” (TYK Medicines, Inc., priority 2023, dated 2025)

Columns and labels:
Type in all cases: physicochemical
[1] = Flowability test (angle of repose); settings: listed as amorphous sample
Experimental: A flowability determination method was as follows: an angle of repose was determined by using a device composed of 2 to 3 funnels connected in series in a staggered manner, and drug powder was slowly and uniformly passed through the funnels onto a stationary base with a diameter d, so as to form a symmetric powder pile with a single layer of powder at the bottom. During the formation of the powder pile, a height of the funnels was maintained within 2-4 cm from a top of the powder pile, a height h of the cone was determined, and the angle of repose was calculated as tanθ=h/(d/2).

[2] = High-humidity test, related substances by HPLC; settings: 90%RH±5%RH; for Impurity content RRT0.55 / Impurity content RRT0.66 / Impurity content RRT0.71 / Impurity content RRT0.94 / Impurity content RRT1.02 / Impurity content RRT1.06 / Impurity content RRT1.08 / Impurity content RRT1.15 / Total impurities: open
Excerpt: An investigation method for the high-humidity test can be seen in Table 12 below.
Results of related substances in each crystal form under the high-humidity condition (90%RH±5%RH) can be seen in Table 16.
HPLC detection results of related substances under the high-humidity condition can be seen as follows: Table 16

[3] = Light exposure test, related substances by HPLC; settings: for Impurity content RRT0.55 / Impurity content RRT0.66 / Impurity content RRT0.71 / Impurity content RRT0.94 / Impurity content RRT1.02 / Impurity content RRT1.06 / Impurity content RRT1.08 / Impurity content RRT1.15 / Total impurities: 4500lx±500lx, open
Excerpt: An investigation method for the light exposure test can be seen in Table 13 below.
Results of related substances in each crystal form under the light exposure condition (4500lx±500lx) can be seen in Table 17.
HPLC detection results of related substances under the light exposure condition can be seen as follows: Table 17

[4] = Dynamic vapor sorption (DVS) hygroscopicity
Experimental: Dynamic vapor sorption (DVS) was used to investigate hygroscopicities of an active pharmaceutical ingredient in different crystal forms.
Determination method: • instrument: dynamic vapor sorption analyzer; temperature: 25°C; protective gas and flow rate: N2, 200 mL/min; • dm/dt: 0.002%/min; RH range: 0%RH-100%RH; cycle: 1 full cycle.

[5] = Accelerated test, related substances by HPLC; settings: 40°C±2°C, 75%RH±5%RH; for Impurity content RRT0.55 / Impurity content RRT0.66 / Impurity content RRT0.71 / Impurity content RRT0.94 / Impurity content RRT1.02 / Impurity content RRT1.06 / Impurity content RRT1.08 / Impurity content RRT1.15 / Total impurities: open
Experimental: An investigation method for the accelerated test can be seen in Table 14 below.
Change results of related substances in each crystal form under the accelerated condition (40°C±2°C, 75%RH±5%RH) can be seen in Table 18.
HPLC detection results of related substances under the accelerated condition can be seen as follows: Table 18

C[C@@H](Nc1ccn2ncc(C3=NOC(C)(C)N3)c2n1)c1cc(F)cc(F)c1F [amorphous form]
angle of repose [1]: approximately 37.5 ° | Increase of impurity RRT1.02 content ([2]; 32 days): 0.03% | Increase of impurity RRT1.08 content ([2]; 32 days): 0.05% | Increase of total impurities ([2]; 32 days): 0.10% | Impurity content RRT0.55 ([2]; 0 day): 0.03% | Impurity content RRT0.66 ([2]; 0 day): 0.20% | Impurity content RRT0.71 ([2]; 0 day): 0.16% | Impurity content RRT0.94 ([2]; 0 day): 0.04% | Impurity content RRT1.02 ([2]; 0 day): 0.29% | Impurity content RRT1.06 ([2]; 0 day): 0.07% | Impurity content RRT1.08 ([2]; 0 day): 0.18% | Impurity content RRT1.15 ([2]; 0 day): 0.04% | Total impurities ([2]; 0 day): 1.01% | Impurity content RRT0.55 ([2]; 5 days): 0.03% | Impurity content RRT0.66 ([2]; 5 days): 0.21% | Impurity content RRT0.71 ([2]; 5 days): 0.17% | Impurity content RRT0.94 ([2]; 5 days): 0.03% | Impurity content RRT1.02 ([2]; 5 days): 0.31% | Impurity content RRT1.06 ([2]; 5 days): 0.09% | Impurity content RRT1.08 ([2]; 5 days): 0.19% | Impurity content RRT1.15 ([2]; 5 days): 0.04% | Total impurities ([2]; 5 days): 1.07% | Impurity content RRT0.55 ([2]; 11 days): 0.03% | Impurity content RRT0.66 ([2]; 11 days): 0.20% | Impurity content RRT0.71 ([2]; 11 days): 0.16% | Impurity content RRT0.94 ([2]; 11 days): 0.03% | Impurity content RRT1.02 ([2]; 11 days): 0.31% | Impurity content RRT1.06 ([2]; 11 days): 0.09% | Impurity content RRT1.08 ([2]; 11 days): 0.25% | Impurity content RRT1.15 ([2]; 11 days): 0.03% | Total impurities ([2]; 11 days): 1.11% | Impurity content RRT0.55 ([2]; 32 days): 0.03% | Impurity content RRT0.66 ([2]; 32 days): 0.20% | Impurity content RRT0.71 ([2]; 32 days): 0.18% | Impurity content RRT0.94 ([2]; 32 days): 0.04% | Impurity content RRT1.02 ([2]; 32 days): 0.31% | Impurity content RRT1.06 ([2]; 32 days): 0.06% | Impurity content RRT1.08 ([2]; 32 days): 0.23% | Impurity content RRT1.15 ([2]; 32 days): 0.05% | Total impurities ([2]; 32 days): 1.11% | Increase of impurity RRT0.66 content ([3]; 4500 lx±500 lx, 32 days): 0.03% | Increase of impurity RRT0.71 content ([3]; 4500 lx±500 lx, 32 days): 0.05% | Increase of impurity RRT1.02 content ([3]; 4500 lx±500 lx, 32 days): 0.06% | Increase of impurity RRT1.08 content ([3]; 4500 lx±500 lx, 32 days): 0.19% | Increase of total impurities ([3]; 4500 lx±500 lx, 32 days): 0.37% | Impurity content RRT0.55 ([3]; 0 day): 0.03% | Impurity content RRT0.66 ([3]; 0 day): 0.20% | Impurity content RRT0.71 ([3]; 0 day): 0.16% | Impurity content RRT0.94 ([3]; 0 day): 0.04% | Impurity content RRT1.02 ([3]; 0 day): 0.29% | Impurity content RRT1.06 ([3]; 0 day): 0.07% | Impurity content RRT1.08 ([3]; 0 day): 0.18% | Impurity content RRT1.15 ([3]; 0 day): 0.04% | Total impurities ([3]; 0 day): 1.01% | Impurity content RRT0.55 ([3]; 5 days): 0.04% | Impurity content RRT0.66 ([3]; 5 days): 0.20% | Impurity content RRT0.71 ([3]; 5 days): 0.17% | Impurity content RRT0.94 ([3]; 5 days): 0.03% | Impurity content RRT1.02 ([3]; 5 days): 0.32% | Impurity content RRT1.06 ([3]; 5 days): 0.08% | Impurity content RRT1.08 ([3]; 5 days): 0.21% | Impurity content RRT1.15 ([3]; 5 days): 0.04% | Total impurities ([3]; 5 days): 1.09% | Impurity content RRT0.55 ([3]; 11 days): 0.03% | Impurity content RRT0.66 ([3]; 11 days): 0.21% | Impurity content RRT0.71 ([3]; 11 days): 0.17% | Impurity content RRT0.94 ([3]; 11 days): 0.03% | Impurity content RRT1.02 ([3]; 11 days): 0.33% | Impurity content RRT1.06 ([3]; 11 days): 0.09% | Impurity content RRT1.08 ([3]; 11 days): 0.28% | Impurity content RRT1.15 ([3]; 11 days): 0.03% | Total impurities ([3]; 11 days): 1.17% | Impurity content RRT0.55 ([3]; 32 days): 0.05% | Impurity content RRT0.66 ([3]; 32 days): 0.23% | Impurity content RRT0.71 ([3]; 32 days): 0.21% | Impurity content RRT0.94 ([3]; 32 days): 0.06% | Impurity content RRT1.02 ([3]; 32 days): 0.35% | Impurity content RRT1.06 ([3]; 32 days): 0.07% | Impurity content RRT1.08 ([3]; 32 days): 0.37% | Impurity content RRT1.15 ([3]; 32 days): 0.05% | Total impurities ([3]; 32 days): 1.38% | Hygroscopicity (conclusion) [4]: had hygroscopicity | DVS weight gain ([4]; humidity increased from 90% to 100%): approximately 3.5% | DVS weight loss ([4]; humidity reduced from 100% to 90%): approximately 1.5% | Increase of impurity RRT1.08 content ([5]; 32 days): 0.03% | Impurity content RRT0.55 ([5]; 0 day): 0.03% | Impurity content RRT0.66 ([5]; 0 day): 0.20% | Impurity content RRT0.71 ([5]; 0 day): 0.16% | Impurity content RRT0.94 ([5]; 0 day): 0.04% | Impurity content RRT1.02 ([5]; 0 day): 0.29% | Impurity content RRT1.06 ([5]; 0 day): 0.07% | Impurity content RRT1.08 ([5]; 0 day): 0.18% | Impurity content RRT1.15 ([5]; 0 day): 0.04% | Total impurities ([5]; 0 day): 1.01% | Impurity content RRT0.55 ([5]; 5 days): 0.04% | Impurity content RRT0.66 ([5]; 5 days): 0.20% | Impurity content RRT0.71 ([5]; 5 days): 0.17% | Impurity content RRT0.94 ([5]; 5 days): 0.03% | Impurity content RRT1.02 ([5]; 5 days): 0.32% | Impurity content RRT1.06 ([5]; 5 days): 0.08% | Impurity content RRT1.08 ([5]; 5 days): 0.22% | Impurity content RRT1.15 ([5]; 5 days): 0.04% | Total impurities ([5]; 5 days): 1.09% | Impurity content RRT0.55 ([5]; 11 days): 0.03% | Impurity content RRT0.66 ([5]; 11 days): 0.20% | Impurity content RRT0.71 ([5]; 11 days): 0.17% | Impurity content RRT0.94 ([5]; 11 days): 0.03% | Impurity content RRT1.02 ([5]; 11 days): 0.31% | Impurity content RRT1.06 ([5]; 11 days): 0.08% | Impurity content RRT1.08 ([5]; 11 days): 0.24% | Impurity content RRT1.15 ([5]; 11 days): 0.03% | Total impurities ([5]; 11 days): 1.10% | Impurity content RRT0.55 ([5]; 32 days): 0.04% | Impurity content RRT0.66 ([5]; 32 days): 0.20% | Impurity content RRT0.71 ([5]; 32 days): 0.18% | Impurity content RRT0.94 ([5]; 32 days): 0.04% | Impurity content RRT1.02 ([5]; 32 days): 0.29% | Impurity content RRT1.06 ([5]; 32 days): 0.06% | Impurity content RRT1.08 ([5]; 32 days): 0.21% | Impurity content RRT1.15 ([5]; 32 days): 0.03% | Total impurities ([5]; 32 days): 1.05%
